In the supplement of paper PMC5908809:

How the values were obtained:
[1] = tested on: normal NK cells expanded with K562-aAPC; assay: percent inhibition of viability; higher = more inhibition; details: 72 h, IL-2 2.5 ng/mL
Procedure: (§1)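 Drug sensitivity and resistance testing on K562-aAPC-expanded normal NK cells: 5 concentrations (10-fold steps over a 10,000-fold range), 72 h at 37 °C, viability by CellTiter-Glo normalised to DMSO and benzethonium chloride controls; DSS from the fitted curve.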

DERL-7 (IL-2 2.5 ng/mL) [2] = assay: as above; details: 72 h
IMC-1 (IL-2 20 ng/mL) [3] = assay: as above; details: 72 h
KAI3 (IL-2 2.5 ng/mL) [4] = assay: as above; details: 72 h
KHYG-1 (IL-2 2.5 ng/mL) [5] = assay: as above; details: 72 h
NK-92 (IL-2 2.5 ng/mL) [6] = assay: as above; details: 72 h
NK-YS (IL-2 2.5 ng/mL) [7] = assay: as above; details: 72 h
NKL (IL-2 2.5 ng/mL) [8] = assay: as above; details: 72 h
SNK-6 (IL-2 2.5 ng/mL) [9] = assay: as above; details: 72 h
YT (IL-2 2.5 ng/mL) [10] = assay: as above; details: 72 h
[11] = tested on: normal primary NK cells, pool 1 (3 donors) (IL-2 2.5 ng/mL); assay: as above; details: 72 h
[12] = tested on: normal primary NK cells, pool 1 (3 donors), resting (IL-2 0 ng/mL); assay: as above; details: 72 h
[13] = tested on: normal primary NK cells, pool 2 (3 donors) (IL-2 2.5 ng/mL); assay: as above; details: 72 h
[14] = tested on: normal primary NK cells, pool 3 (3 donors) (IL-2 2.5 ng/mL); assay: as above; details: 72 h
[15] = tested on: normal NK cells expanded with K562-aAPC; assay: drug sensitivity score (DSS) (DSS units); higher = more sensitive; extreme values may be limits of the assay; details: 72 h; IL-2 2.5 ng/mL
Procedure: as §1

DERL-7 (IL-2 2.5 ng/mL) [16] = assay: as above; details: 72 h
IMC-1 (IL-2 20 ng/mL) [17] = assay: as above; details: 72 h
KAI3 (IL-2 2.5 ng/mL) [18] = assay: as above; details: 72 h
KHYG-1 (IL-2 2.5 ng/mL) [19] = assay: as above; details: 72 h
NK-92 (IL-2 2.5 ng/mL) [20] = assay: as above; details: 72 h
NK-YS (IL-2 2.5 ng/mL) [21] = assay: as above; details: 72 h
NKL (IL-2 2.5 ng/mL) [22] = assay: as above; details: 72 h
SNK-6 (IL-2 2.5 ng/mL) [23] = assay: as above; details: 72 h
YT (IL-2 2.5 ng/mL) [24] = assay: as above; details: 72 h
[25] = tested on: normal primary NK cells, pool 1 (3 donors) (IL-2 2.5 ng/mL); assay: as above; details: 72 h
[26] = tested on: normal primary NK cells, pool 1 (3 donors), resting (IL-2 0 ng/mL); assay: as above; details: 72 h
[27] = tested on: normal primary NK cells, pool 2 (3 donors) (IL-2 2.5 ng/mL); assay: as above; details: 72 h
[28] = tested on: normal primary NK cells, pool 3 (3 donors) (IL-2 2.5 ng/mL); assay: as above; details: 72 h

O=C(Nc1ccncc1)C(=O)c1cn(Cc2ccc(Cl)cc2)c2ccccc12 [Indibulin] (max concentration tested 10000 nM)
percent inhibition of viability [%]
Details	1 nM	10 nM	100 nM	1000 nM	10000 nM
DERL-7 (IL-2 2.5 ng/mL) [2]	0.04	6.67	4.75	46.8	89.2
IMC-1 (IL-2 20 ng/mL) [3]	-3.14	0.7	4.01	92.4	98.2
KAI3 (IL-2 2.5 ng/mL) [4]	3.69	14.7	33	55.2	49.6
KHYG-1 (IL-2 2.5 ng/mL) [5]	-4.72	2.71	48.2	102	96
NK-92 (IL-2 2.5 ng/mL) [6]	-6.37	25.8	53.4	90.8	88.7
NK-YS (IL-2 2.5 ng/mL) [7]	-6.38	5.31	41.8	72.1	62.7
NKL (IL-2 2.5 ng/mL) [8]	-12.2	-11.9	51.8	86.5	83.6
SNK-6 (IL-2 2.5 ng/mL) [9]	23.1	63.2	78.4	84	80.9
YT (IL-2 2.5 ng/mL) [10]	-4.48	2.55	34.7	90.4	92
[1]	0.45	-0.15	0.03	26.6	49.8
[11]	-10.2	-6.02	-8.45	-10.4	-3.72
[12]	-7.61	-0.32	20.6	8.83	10.7
[13]	-0.63	-6.55	0.37	1.94	2.69
[14]	-1.93	-8.2	1.19	5.32	11.4

Details	drug sensitivity score
DERL-7 (IL-2 2.5 ng/mL) [16]	10.5
IMC-1 (IL-2 20 ng/mL) [17]	17.3
KAI3 (IL-2 2.5 ng/mL) [18]	14.6
KHYG-1 (IL-2 2.5 ng/mL) [19]	24
NK-92 (IL-2 2.5 ng/mL) [20]	24.3
NK-YS (IL-2 2.5 ng/mL) [21]	18.2
NKL (IL-2 2.5 ng/mL) [22]	21.9
SNK-6 (IL-2 2.5 ng/mL) [23]	35
YT (IL-2 2.5 ng/mL) [24]	20.8
[15]	5.97
[25]	0
[26]	0.77
[27]	0
[28]	0.07

CN1CC[C@H](c2c(O)cc(O)c3c(=O)cc(-c4ccccc4Cl)oc23)[C@H](O)C1 [Alvocidib] (max concentration tested 10000 nM)
percent inhibition of viability [%]
Details	1 nM	10 nM	100 nM	1000 nM	10000 nM
DERL-7 (IL-2 2.5 ng/mL) [2]	-0.06	-8.43	20	99.6	101
IMC-1 (IL-2 20 ng/mL) [3]	-6.84	-2.57	-23.3	98.5	100
KAI3 (IL-2 2.5 ng/mL) [4]	-3.44	8.97	69.4	99.3	104
KHYG-1 (IL-2 2.5 ng/mL) [5]	3.43	-0.43	31.6	103	106
NK-92 (IL-2 2.5 ng/mL) [6]	1.2	-10.9	40.2	99.5	104
NK-YS (IL-2 2.5 ng/mL) [7]	-0.27	3.87	33.1	98.8	103
NKL (IL-2 2.5 ng/mL) [8]	-9.8	1.18	36	101	109
SNK-6 (IL-2 2.5 ng/mL) [9]	16.1	27.2	40	54.8	50.7
YT (IL-2 2.5 ng/mL) [10]	1.4	6.09	33.3	101	104
[1]	-1.75	-1.8	2.89	100	101
[11]	-0.02	-24.2	17.8	96.8	97.3
[12]	6.48	-25.6	-4.81	88.6	91.6
[13]	-15.2	-10.6	25.6	93.8	95.7
[14]	-16.4	-9.75	22.2	97.3	98.7

Details	drug sensitivity score
DERL-7 (IL-2 2.5 ng/mL) [16]	21.2
IMC-1 (IL-2 20 ng/mL) [17]	16.6
KAI3 (IL-2 2.5 ng/mL) [18]	26.8
KHYG-1 (IL-2 2.5 ng/mL) [19]	22.6
NK-92 (IL-2 2.5 ng/mL) [20]	23.4
NK-YS (IL-2 2.5 ng/mL) [21]	22.1
NKL (IL-2 2.5 ng/mL) [22]	23
SNK-6 (IL-2 2.5 ng/mL) [23]	18.3
YT (IL-2 2.5 ng/mL) [24]	22.6
[15]	18.4
[25]	20.4
[26]	15.8
[27]	21.1
[28]	21.3
